Test results taken from patent US9695155B2, “Herbicidal substituted pyrimidinyloxy benzene compounds” (E. I. DU PONT DE NEMOURS AND COMPANY, priority 2013, dated 2017).

Columns and labels:
[1] = test system: wild oat; assay: Test C preemergence; format: in vivo, Avena fatua; settings: for Oat, Wild plant response rating: preemergence, scale 0 (no effect) to 100 (complete control); for Plant response rating, Oat, Wild: Preemergence, 31 g ai/ha, scale 0 to 100, 0 no effect, 100 complete control
Source text: (§1) Seeds of plant species selected from blackgrass (Alopecurus myosuroides), Italian ryegrass (Lolium multiflorum), wheat, winter (winter wheat, Triticum aestivum), galium (catchweed bedstraw, Galium aparine), corn (Zea mays), large (Lg) crabgrass (Digitaria sanguinalis), giant foxtail (Setaria faberii), johnsongrass (Sorghum halepense), lambsquarters (Chenopodium album), morningglory (Ipomoea coccinea), yellow nutsedge (Cyperus esculentus), pigweed (Amaranthus retroflexus), ragweed (common ragweed, Ambrosia elatior), soybean (Glycine max), barnyardgrass (Echinochloa crus-galli), oilseed rape (Brassica napus), waterhemp (common waterhemp, Amaranthus rudis), kochia (Kochia scoparia), wild oat (Avena fatua), surinam grass (Brachiaria decumbens), foxtail, green (green foxtail, Setaria viridis), goosegrass (Eleusine indica), bromegrass, downy (downy bromegrass, Bromus tectorum), nightshade (eastern black nightshade, Solanum ptycanthum), cocklebur (common cocklebur, Xanthium strumarium), cupgrass, woolly (woolly cupgrass, Eriochloa villosa), bermudagrass (Cynodon dactylon), sunflower, (common oilseed sunflower, Helianthus annuus), Russian thistle (Salsola kali), and velvetleaf (Abutilon theophrasti) were planted into a blend of loam soil and sand and treated preemergence with test chemicals formulated in a non-phytotoxic solvent mixture which included a surfactant.
(§2) At the same time, plants selected from these crop and weed species and also barley, winter (winter barley, Hordeum vulgare), windgrass (Apera spica-venti), chickweed (common chickweed, Stellaria media), deadnettle (henbit deadnettle, Lamium amplexicaule), and canarygrass (littleseed canarygrass, Phalaris minor) were planted in pots containing Redi-Earth® planting medium (Scotts Company, 14111 Scottslawn Road, Marysville, Ohio 43041) comprising spaghnum peat moss, vermiculite, wetting agent and starter nutrients and treated with postemergence applications of test chemicals formulated in the same manner. Plants ranged in height from 2 to 18 cm (1- to 4-leaf stage) for postemergence treatments. Treated plants and controls were maintained in a greenhouse for 13 to 15 days, after which time all species were compared to controls and visually evaluated. Plant response ratings, summarized in Table C, are based on a scale of 0 to 100 where 0 is no effect and 100 is complete control. A dash (-) response means no test result.

[2] = test system: surinam grass; assay: Test C preemergence; format: in vivo, Brachiaria decumbens; settings: for Surinam Grass plant response rating: preemergence, scale 0 (no effect) to 100 (complete control); for Plant response rating, Surinam Grass: Preemergence, 31 g ai/ha, scale 0 to 100, 0 no effect, 100 complete control
Source text: as §1, §2

[3] = test system: bromegrass, downy; assay: Test C preemergence; format: in vivo, Bromus tectorum; settings: for Bromegrass, Downy plant response rating: preemergence, scale 0 (no effect) to 100 (complete control); for Plant response rating, Bromegrass, Downy: Preemergence, 31 g ai/ha, scale 0 to 100, 0 no effect, 100 complete control
Source text: as §1, §2

[4] = test system: cocklebur; assay: Test C preemergence; format: in vivo, Xanthium strumarium; settings: for Cocklebur plant response rating: preemergence, scale 0 (no effect) to 100 (complete control)
Source text: as §1, §2

[5] = test system: cupgrass, woolly; assay: Test C preemergence; format: in vivo, Eriochloa villosa; settings: for Cupgrass, Woolly plant response rating: preemergence, scale 0 (no effect) to 100 (complete control); for Plant response rating, Cupgrass, Woolly: Preemergence, 31 g ai/ha, scale 0 to 100, 0 no effect, 100 complete control
Source text: as §1, §2

[6] = test system: bermudagrass; assay: Test C preemergence; format: in vivo, Cynodon dactylon; settings: for Bermudagrass plant response rating: preemergence, scale 0 (no effect) to 100 (complete control); for Plant response rating, Bermudagrass: Preemergence, 31 g ai/ha, scale 0 to 100, 0 no effect, 100 complete control
Source text: as §1, §2

[7] = test system: goosegrass; assay: Test C postemergence; format: in vivo, Eleusine indica; settings: for Plant response rating (0 to 100), Goosegrass: postemergence; for Plant response rating, Goosegrass: Postemergence, scale 0 to 100 (0 no effect, 100 complete control)
Source text: as §1, §2

[8] = test system: deadnettle; assay: Test C postemergence; format: in vivo, Lamium amplexicaule; settings: for Plant response rating (0 to 100), Deadnettle: postemergence; for Plant response rating, Deadnettle: Postemergence, scale 0 to 100 (0 no effect, 100 complete control)
Source text: as §1, §2

[9] = test system: canarygrass; assay: Test C postemergence; format: in vivo, Phalaris minor; settings: for Plant response rating (0 to 100), Canarygrass: postemergence; for Plant response rating, Canarygrass: Postemergence, scale 0 to 100 (0 no effect, 100 complete control)
Source text: as §1, §2

[10] = test system: Russian thistle; assay: Test C preemergence; format: in vivo, Salsola kali; settings: for Russian Thistle plant response rating: preemergence, scale 0 (no effect) to 100 (complete control)
Source text: as §1, §2

[11] = test system: barnyardgrass; assay: Test G flood (paddy water application); format: in vivo, Echinochloa crus-galli; settings: after 21 days, scale 0 to 100, 0 no effect, 100 complete control
Source text: (§3) Three plastic pots (ca. 16-cm diameter) per rate were partially filled with sterilized Tama silt loam soil comprising a 35:50:15 ratio of sand, silt and clay and 2.6% organic matter. Separate plantings for each of the three pots were as follows. Seeds from the U.S. of monochoria (Monochoria vaginalis), sedge, umbrella (small-flower umbrella sedge, Cyperus difformis), hardstem bulrush (Scirpus juncoides), and redstem (purple redstem, Ammannia coccinea), were planted into one 16-cm pot for each rate. Seeds from the U.S. of rice flatsedge (Cyperus iria), bearded sprangletop (Leptochloa fascicularis), one stand of 9 or 10 water seeded rice seedlings (Oryza sativa cv. ‘Japonica—M202’), and two stands of 3 or 4 transplanted rice seedlings (Oryza sativa cv. ‘Japonica—M202’) were planted into one 16-cm pot for each rate. Seeds from the U.S. of barnyardgrass (Echinochloa crus-galli), and late watergrass (Echinochloa oryzicola) were planted into one 16-cm pot for each rate. Plantings were sequential so that crop and weed species were at the 2.0 to 2.5-leaf stage at time of treatment.
(§4) Potted plants were grown in a greenhouse with day/night temperature settings of 30/27° C., and supplemental balanced lighting was provided to maintain a 16-hour photoperiod. Test pots were maintained in the greenhouse until test completion.
(§5) At time of treatment, test pots were flooded to 3 cm above the soil surface, treated by application of test compounds directly to the paddy water, and then maintained at that water depth for the duration of the test. Effects of treatments on rice and weeds were visually evaluated by comparison to untreated controls after 21 days. Plant response ratings, summarized in Table G, are based on a scale of 0 to 100 where 0 is no effect and 100 is complete control. A dash (-) response means no test result.

[12] = test system: hardstem bulrush; assay: Test G flood (paddy water application); format: in vivo, Scirpus juncoides; settings: after 21 days, scale 0 to 100, 0 no effect, 100 complete control
Source text: as §3, §4, §5

[13] = test system: monochoria; assay: Test G flood (paddy water application); format: in vivo, Monochoria vaginalis; settings: after 21 days, scale 0 to 100, 0 no effect, 100 complete control
Source text: as §3, §4, §5

[14] = test system: sedge, umbrella; assay: Test G flood (paddy water application); format: in vivo, Cyperus difformis; settings: after 21 days, scale 0 to 100, 0 no effect, 100 complete control
Source text: as §3, §4, §5

[15] = Preemergence, 31 g ai/ha, scale 0 to 100, 0 no effect, 100 complete control

## Clc1cnc(Oc2ccccc2-n2cc(Br)cn2)nc1 [Compound 7, 2-[2-(4-bromo-1H-pyrazol-1-yl)phenoxy]-5-chloropyrimidine]
[1]; 62 g ai/ha
  Oat, Wild plant response rating: 5
[1]; 125 g ai/ha
  Oat, Wild plant response rating: 50
[1]; 250 g ai/ha
  Oat, Wild plant response rating: 80
[1]
  Plant response rating, Oat, Wild: 0
[2]; 62 g ai/ha
  Surinam Grass plant response rating: 5
[2]; 125 g ai/ha
  Surinam Grass plant response rating: 30
[2]; 250 g ai/ha
  Surinam Grass plant response rating: 85
[2]
  Plant response rating, Surinam Grass: 0
[3]; 62 g ai/ha
  Bromegrass, Downy plant response rating: 5
[3]; 125 g ai/ha
  Bromegrass, Downy plant response rating: 45
[3]; 250 g ai/ha
  Bromegrass, Downy plant response rating: 75
[3]
  Plant response rating, Bromegrass, Downy: 0
[4]; 62 g ai/ha
  Cocklebur plant response rating: 5
[4]; 125 g ai/ha
  Cocklebur plant response rating: 5
[4]; 250 g ai/ha
  Cocklebur plant response rating: 5
[4]; [15]
  Plant response rating, Cocklebur: 0
[5]; 62 g ai/ha
  Cupgrass, Woolly plant response rating: 55
[5]; 125 g ai/ha
  Cupgrass, Woolly plant response rating: 98
[5]; 250 g ai/ha
  Cupgrass, Woolly plant response rating: 98
[5]
  Plant response rating, Cupgrass, Woolly: 15
[6]; 62 g ai/ha
  Bermudagrass plant response rating: 100
[6]; 125 g ai/ha
  Bermudagrass plant response rating: 100
[6]; 250 g ai/ha
  Bermudagrass plant response rating: 100
[6]
  Plant response rating, Bermudagrass: 85
[7]; 125 g ai/ha
  Plant response rating (0 to 100), Goosegrass: 15
[7]; 250 g ai/ha
  Plant response rating (0 to 100), Goosegrass: 15
[7]; 31 g ai/ha, 13 to 15 days
  Plant response rating, Goosegrass: 0
[7]; 62 g ai/ha
  Plant response rating, Goosegrass: 5
[8]; 125 g ai/ha
  Plant response rating (0 to 100), Deadnettle: 98
[8]; 250 g ai/ha
  Plant response rating (0 to 100), Deadnettle: 100
[8]; 31 g ai/ha, 13 to 15 days
  Plant response rating, Deadnettle: 85
[8]; 62 g ai/ha
  Plant response rating, Deadnettle: 98
[9]; 125 g ai/ha
  Plant response rating (0 to 100), Canarygrass: 30
[9]; 250 g ai/ha
  Plant response rating (0 to 100), Canarygrass: 80
[9]; 31 g ai/ha, 13 to 15 days
  Plant response rating, Canarygrass: 5
[9]; 62 g ai/ha
  Plant response rating, Canarygrass: 10

## Fc1cnc(Oc2ccccc2-n2cc(Br)cn2)nc1 [Compound 10, 2-[2-(4-bromo-1H-pyrazol-1-yl)phenoxy]-5-fluoropyrimidine]
[7]; 125 g ai/ha
  Plant response rating (0 to 100), Goosegrass: 5
[7]; 250 g ai/ha
  Plant response rating (0 to 100), Goosegrass: 10
[7]; 31 g ai/ha, 13 to 15 days
  Plant response rating, Goosegrass: 0
[7]; 62 g ai/ha
  Plant response rating, Goosegrass: 5
[8]; 125 g ai/ha
  Plant response rating (0 to 100), Deadnettle: 80
[8]; 250 g ai/ha
  Plant response rating (0 to 100), Deadnettle: 95
[8]; 31 g ai/ha, 13 to 15 days
  Plant response rating, Deadnettle: 50
[8]; 62 g ai/ha
  Plant response rating, Deadnettle: 60
[9]; 125 g ai/ha
  Plant response rating (0 to 100), Canarygrass: 25
[9]; 250 g ai/ha
  Plant response rating (0 to 100), Canarygrass: 40
[9]; 31 g ai/ha, 13 to 15 days
  Plant response rating, Canarygrass: 0
[9]; 62 g ai/ha
  Plant response rating, Canarygrass: 0

## FC(F)(F)c1cnn(-c2ccccc2Oc2ncc(Br)cn2)c1 [Compound 18, 5-bromo-2-[2-[4-(trifluoromethyl)-1H-pyrazol-1-yl]phenoxy]pyrimidine]
[1]; 62 g ai/ha
  Oat, Wild plant response rating: 50
[1]; 125 g ai/ha
  Oat, Wild plant response rating: 80
[1]; 250 g ai/ha
  Oat, Wild plant response rating: 85
[1]
  Plant response rating, Oat, Wild: 0
[2]; 62 g ai/ha
  Surinam Grass plant response rating: 30
[2]; 125 g ai/ha
  Surinam Grass plant response rating: 100
[2]; 250 g ai/ha
  Surinam Grass plant response rating: 100
[2]
  Plant response rating, Surinam Grass: 20
[3]; 62 g ai/ha
  Bromegrass, Downy plant response rating: 10
[3]; 125 g ai/ha
  Bromegrass, Downy plant response rating: 50
[3]; 250 g ai/ha
  Bromegrass, Downy plant response rating: 95
[3]
  Plant response rating, Bromegrass, Downy: 0
[4]; 62 g ai/ha
  Cocklebur plant response rating: 0
[4]; 250 g ai/ha
  Cocklebur plant response rating: 15
[5]; 62 g ai/ha
  Cupgrass, Woolly plant response rating: 55
[5]; 125 g ai/ha
  Cupgrass, Woolly plant response rating: 98
[5]; 250 g ai/ha
  Cupgrass, Woolly plant response rating: 100
[5]
  Plant response rating, Cupgrass, Woolly: 40
[6]; 62 g ai/ha
  Bermudagrass plant response rating: 98
[6]; 125 g ai/ha
  Bermudagrass plant response rating: 98
[6]; 250 g ai/ha
  Bermudagrass plant response rating: 100
[6]
  Plant response rating, Bermudagrass: 95
[10]; 62 g ai/ha
  Russian Thistle plant response rating: 0
[10]; 125 g ai/ha
  Russian Thistle plant response rating: 95
[10]; 250 g ai/ha
  Russian Thistle plant response rating: 95
[10]; [15]
  Plant response rating, Russian Thistle: 0
[11]; 32 g ai/ha
  Plant response rating, Barnyardgrass: 0
[11]; 64 g ai/ha
  Plant response rating, Barnyardgrass: 20
[11]; 125 g ai/ha
  Plant response rating, Barnyardgrass: 35
[11]; 250 g ai/ha
  Plant response rating, Barnyardgrass: 100
[12]; 32 g ai/ha
  Plant response rating, Bulrush, Hardstem: 0
[12]; 64 g ai/ha
  Plant response rating, Bulrush, Hardstem: 0
[12]; 125 g ai/ha
  Plant response rating, Bulrush, Hardstem: 0
[12]; 250 g ai/ha
  Plant response rating, Bulrush, Hardstem: 85
[13]; 32 g ai/ha
  Plant response rating, Monochoria: 95
[13]; 64 g ai/ha
  Plant response rating, Monochoria: 95
[13]; 125 g ai/ha
  Plant response rating, Monochoria: 100
[13]; 250 g ai/ha
  Plant response rating, Monochoria: 100
[14]; 32 g ai/ha
  Plant response rating, Sedge, Umbrella: 0
[14]; 64 g ai/ha
  Plant response rating, Sedge, Umbrella: 20
[14]; 125 g ai/ha
  Plant response rating, Sedge, Umbrella: 35
[14]; 250 g ai/ha
  Plant response rating, Sedge, Umbrella: 100
